Data published in US11352371B2, “Thienopyrimidine derivatives as ACC inhibitors and uses thereof” (Gilead Sciences, Inc., priority 2019, dated 2022).

System: De Novo Lipogenesis (DNL) in liver
Assay: In vivo De Novo Lipogenesis study
Design: species or system Male Sprague Dawley (SD) rats
Conditions: Rattus norvegicus; male SD rats, single p.o. dose, acetate i.p. 3h post-dose, livers collected 1h later; read-out: effective dose that decreased in vivo DNL by 50% (ED50)
Method: The DNL inhibitory activity of the compound of Example 1 was assessed in vivo as follows.
The studies were performed at Covance Laboratories (Madison, Wis.) in compliance with Institutional Animal Care and Use Committee protocols. Male Sprague Dawley (SD) rats were purchased from Envigo RMS, INC and were acclimatized for 7 days prior to study initiation. Animals were provided ad libitum access to food and water for the duration of the study. On the day of the experiment, animals were randomized into dose groups (n=6 rats/group) based on body weight and received a single p.o dose of vehicle (0.1% Tween 80 in water, pH 7.5-8.0) or a dose range of the compound of Example 1 (0.1 μg/kg-1 mg/kg). 3h post-dose (Example 1), the animals received a single i.p bolus of […] (Perkin Elmer, 32 μCi/animal) and were sacrificed 1h later, and livers were collected for DNL analysis. An approx. 0.75 g piece of liver was saponified at 70° C. for 120 min in 1.5 mL of 2.5M NaOH followed by addition of 2.5 mL of ethanol, vigorous mixing. […] Residual ether fractions were dissolved in at least 5 mL of Ultima Gold XR scintillation fluid and analyzed by liquid scintillation counting (LSC). The resulting dpm ([…]) values were normalized to tissue weight and the data were expressed as a percent of vehicle. […]

COc1ccccc1[C@H](Cn1c(=O)n(C(C)(C)C(=O)NS(=O)(=O)C2(C)CC2)c(=O)c2c(C)c(-c3ncco3)sc21)O[C@@H]1C[C@H]2CC[C@@H](C1)O2 [Example 1, 2-(1-((R)-2-(((1R,3s,5S)-8-oxabicyclo[3.2.1]octan-3-yl)oxy)-2-(2-methoxyphenyl)ethyl)-5-methyl-6-(oxazol-2-yl)-2,4-dioxo-1,4-dihydrothieno[2,3-d]pyrimidin-3(2H)-yl)-2-methyl-N-((1-methylcyclopropyl)sulfonyl)propanamide] showed an ED50 of 0.08 mg/kg.
